In patent US6265445A, “Antiarrhythmic compounds” (priority 1997, dated 2001):
Counter-ions that a name gives are not always drawn. Like-named read-outs stand apart in the source and are kept apart here.

Columns and labels:
[1] = tested on: isolated right ventricular trabecule of dog heart; experiment: Extracellular electrophysiological measurements: impulse conduction time and effective refractory period; set-up: species or system mongrel dogs; settings: for activation at 30 µM / activation at 10 µM: Canis lupus familiaris
[2] = tested on: occlusion and reperfusion arrhythmias in anaesthetized dogs; experiment: Occlusion and reperfusion arrhythmias following acute coronary ligation in anaesthetized dogs; type: in vivo, mongrel dogs; settings: 3 mg/kg i.v.
Protocol: The method used is essentially in agreement with the method of Vegh et al. [Basic Res. Cardiol. 82, 159-171 (1987)].
Mongrel dogs of both sexes weighing 10 to 20 kg each were anaesthetized by a mixture of chloralose (60 mg/kg) and urethane (200 mg/kg) and the animals were maintained on artificial respiration. After opening the chest, the ramus descendens anterior (LAD) branch of the left coronary artery of heart was prepared from the first main collateral branch and a loose loop from surgical thread was placed around it. During our experiments, the blood pressure of the animal was measured by using a cannule introduced to the left femoral artery and even the standard ECG parameters by using needle electrodes were continuously registered. The arrhythmias were induced by the occlusion for 25 minutes of a loop placed round the LAD. The survival after lethal arrhythmias and frequency of the arrhythmias were registered. The 28 dogs used in the experiments were divided into three groups. The compound of Example 15 was administered in a dose of 1 mg/kg to 8 animals; d-sotalol was given in a dose of 3 mg/kg to 10 animals by a single intravenous injection 10 minutes before compression of the coronary vessel. The control dogs (10 animals) received 5 ml of physiological saline solution in the same manner as the treated animals.
By using this method it can be stated whether the substance investigated would be effective for protection against arrhythmias following the ligation of the coronary artery.

[3] = tested on: arrhythmias following coronary artery occlusion in conscious rats; experiment: Occlusion arrhythmia following acute coronary artery ligation in conscious rats; type: in vivo, male rats; settings: for Occurrence of arrhythmias: Brady / Occurrence of arrhythmias: Free (no arrhythmia was observed) / Occurrence of arrhythmias: Other / Occurrence of arrhythmias: VF / Occurrence of arrhythmias: VT: first 15 minutes; for Arrhythmia Score: score system from 0 to 6
Source text: The method used is essentially in agreement with the method of Lepran et al. [J. Pharmacol. Methods 9, pp. 219-230 (1983)].
During a previous operation, male rats weighing 340 to 360 g each were fitted with a loose surgical thread loop around the left descending coronary vessel, at about 2 mm from its origin. The ends of the loop thread were led out from the chest under the skin, then the surgical wound was closed. After complete recovery from this previous operation (7 to 8 days) acute myocardial ischaemia was induced by contracting the loose ligation in the conscious, freely moving animals. ECG was continuously registered by using bipolar chest electrodes before the ligation of the coronary artery and during the first 15 minutes of ischaemia. The ratio of survivals was determined and the developed arrhythmias were evaluated according to the Lambeth Convention [Walker et al.: Cardiovasc. Res. 22, 447-455 (1988)]. For evaluation of the arrhythmic episodes a score system was also employed by considering the severity of episodes on the basis of a score system from 0 to 6. Both d-sotalol and the substance of Example 15, respectively, were suspended in 1% methylcellulose and administered orally through a gastric sound at 1 hour before the compression of the coronary vessel. The control animals received a treatment with the same volume, i.e. 5 ml/kg of vehicle.

[4] = treatment group; cited from earlier work
[5] = tested on: right ventricular papillary muscle of dogs; experiment: Intracellular microelectrode technique: action potential parameters, ventricular papillary muscle; set-up: species or system mongrel dogs
Protocol: The method used is essentially in agreement with the method of Papp et al. [J. Cardiovascular Pharmacol. Ther. 1, 287-296 (1996)].
Right ventricular papillary muscle and Purkinje's fibres were prepared from the hearts of mongrel dogs (weighing 5 to 10 kg each). The preparations were placed into an organ bath (37° C.) containing modified Tyrode's nutrient medium. The preparations were excited by a basal frequency of 1 Hz. During the experiments, the frequency of stimulation was varied under broad limits by a computer-guided stimulator. The intracellular action potentials were registered by using glass capillary microelectrodes filled with 3 N potassium chloride solution (standard intracellular microelectrode techniques). The resting potential (RP), the amplitude of the action potential (APA) as well as the duration of the action potential (APD) were measured by using an IBM 386 compatible computer by means of an own-developed software. The compounds under test were directly added into the organ bath after dilution of the stock solutions according to the final concentrations desired. The effects of the compounds were observed after an incubation time of 30 to 40 minutes.

[6] = 1 Hz, read-out: Prolongation (%) of ERP
[7] = 1 Hz, read-out: Prolongation (%) of impulse conduction time
[8] = 3 Hz, read-out: Prolongation (%) of ERP
[9] = 3 Hz, read-out: Prolongation (%) of impulse conduction time

`CC(C)NCC(O)c1ccc(NS(C)(=O)=O)cc1` (single isomer, unassigned) [d-Sotalol, d-N-[4-[1-hydroxy-2-(1-methylethylamino)ethyl]phenyl]methanesulfonamide hydrochloride] showed an activation at 30 µM [1, 6] of 12.4%, an activation at 30 µM [1, 7] of -4.5 ± 5.1% and an activation at 30 µM [1, 8] of 7.1%. For the same molecule, the activation at 30 µM [1, 9] was -3.7 ± 4.7%, the “effect on effective refractory period (in words)” value ([1]; concentrations of Table 1) was “showed a considerable effect only on the ERP” and the “Complete survival, animals” value [2] was 5/10. For the same molecule, the “Complete survival, percent” value [2] was 50%, the “ES (extrasystole)” value ([2]; occlusion) was 128 ± 14 and the “VF (ventricular fibrillation), animals” value ([2]; occlusion) was 3/10. The “VF (ventricular fibrillation), percent” value ([2]; occlusion) was 30%, the “VT (ventricular tachycardia), animals” value ([2]; occlusion) was 5/10 and the “VT (ventricular tachycardia), percent” value ([2]; occlusion) was 50%. For the same molecule, the “VF (ventricular fibrillation), animals” value ([2]; reperfusion) was 2/7, the “VF (ventricular fibrillation), percent” value ([2]; reperfusion) was 29% and the “antiarrhythmic effect (in words)” value ([3]; oral administration) was “proved to be inactive”. The “Survival 15 minutes” value ([3]; p.o. 25 mg/kg) was 2/29, the “Survival 16 hours” value ([3]; p.o. 25 mg/kg) was 2/29 and the “Occurrence of arrhythmias: Brady” value ([3]; p.o. 25 mg/kg) was 2/29. The “Occurrence of arrhythmias: Free (no arrhythmia was observed)” value ([3]; p.o. 25 mg/kg) was 0/0, the “Occurrence of arrhythmias: Other” value ([3]; p.o. 25 mg/kg) was 3/43 and the “Occurrence of arrhythmias: VF” value ([3]; p.o. 25 mg/kg) was 7/100. For the same molecule, the “Occurrence of arrhythmias: VT” value ([3]; p.o. 25 mg/kg) was 7/100, the “Arrhythmia Score” value ([3]; p.o. 25 mg/kg) was 5.71 ± 0.18 and the “Survival 15 minutes” value ([3]; p.o. 50 mg/kg) was 1/10. For the same molecule, the “Survival 16 hours” value ([3]; p.o. 50 mg/kg) was 0/0, the “Occurrence of arrhythmias: Brady” value ([3]; p.o. 50 mg/kg) was 1/10 and the “Occurrence of arrhythmias: Free (no arrhythmia was observed)” value ([3]; p.o. 50 mg/kg) was 0/0. For the same molecule, the “Occurrence of arrhythmias: Other” value ([3]; p.o. 50 mg/kg) was 4/40, the “Occurrence of arrhythmias: VF” value ([3]; p.o. 50 mg/kg) was 1/100 and the “Occurrence of arrhythmias: VT” value ([3]; p.o. 50 mg/kg) was 10/100. For the same molecule, the “Arrhythmia Score” value ([3]; p.o. 50 mg/kg) was 5.90 ± 0.10 and the “mortality in clinical trials (in words)” value [4] was “increase in mortality ascribable to the proarrhythmic effect”.

Molecule `Cc1cccc(C)c1OCC(C)NCCc1ccc(NS(C)(=O)=O)cc1.Cl` (centres unmarked) [Example 22, N-[4-[2-[N-[2-(2,6-Dimethylphenoxy)-1-methylethyl]amino]-ethyl]phenyl]methanesulfonamide hydrochloride] has an activation at 10 µM [1, 6] of 12.3%, an activation at 10 µM [1, 7] of 22.6% and an activation at 10 µM [1, 8] of 18.1%. The activation at 10 µM [1, 9] was 28.3%, the “APA (amplitude of the action potential)” value ([5]; 5 μM) was 100 mV and the “APD50 (time of 50% repolarization)” value ([5]; 5 μM) was 215 ms. The “APD90 (time of 90% repolarization)” value ([5]; 5 μM) was 260 ms, the “RP (resting potential)” value ([5]; 5 μM) was -80 mV and the “Recovery Ampl” value ([5]; 5 μM) was 136.3 V/s. For the same molecule, the “Recovery Ampl/Plateau” value ([5]; 5 μM) was 0.58, the “Recovery Plateau” value ([5]; 5 μM) was 232.8 V/s and the “Vmax (maximum rate of depolarization)” value ([5]; 5 μM) was 159 V/s. The “Trecovery (recovery time constant of Vmax)” value ([5]; 5 μM, Gy: kinetics of rapid restoration) was 337.8 ms, the “effect on duration of the action potential (in words)” value ([5]; concentrations of Table 2) was “simultaneous prolongation of duration of the action potential (APD)” and the “effect on Vmax (in words)” value ([5]; rapid recovery kinetics, concentrations of Table 2) was “mexiletine-like inhibition of Vmax”.
